Experimental data published in EP0116255A2, “Treatment of migraine with N-alkyl-piperidinyl benzoate derivatives” (MERRELL DOW FRANCE ET CIE, priority 1982, dated 1984).
Read-outs that look alike come from different tables or passages of the source.

Experiments:
[1] = system: von Bezold-Jarisch reflex evoked by 5-HT; assay: Antagonism of the von Bezold-Jarisch reflex evoked by 5-HT in the anaesthetised rat; assay type: in vivo; conditions: iv, anaesthetised male Sprague-Dawley rat, antagonist intravenously; for ED50: dose inhibiting the response to 5-HT (2µg/kg i.v.) by 50%
Excerpt: The activity of the compounds of Formula I against 5-HT can be assessed in vivo by measurement of the effect of the compound on the Von Bezold-Jarisch Reflex induced by 5-HT injected intravenously into the rat (see A.S. Paintal, Physiol. Rev. 53 (159-227), 1973). The transient cardiac slowing results arises from an increased efferent vagus activity arising from stimulation by 5-HT of sensory afferent fibres in and around the heart.
Antagonism of the von Bezold-Jarisch reflex evoked by 5-HT in the anaesthetised rat was measured for N-methyl-4-piperidinyl-3',5'-dimethylbenzoate (Compound A) and N-methyl-3-piperidinyl 3',5'-dimethylbenzoate (Compound B), using the following method: • Male Sprague-Dawley rats weighing 250-300 g are anaesthetized with urethane, 1.25 g/kg injected intraperitoneally and set up for recording blood pressure and heart rate as described in Fozard J.R et al., J. Cardiovasc. Pharmacol. 2, 229-245 (1980). A submaximal dose of 5-HT (2µg/kg) is given repeatedly into the cannulated jugular vein and changes in heart rate quantified. Antagonists are given intravenously and the doses required to just inhibit the response to 5-HT (threshold dose) or to inhibit the response to 5-HT by 50% (ED50) are determined.

5-HT M-receptor [2] = target: T1, 5-HT M-receptor (Oryctolagus cuniculus, UniProt A0A5F9C9J3); assay: pA2 against 5-HT in the isolated rabbit heart; conditions: negative logarithm of molar antagonist concentration reducing effect of twice the ED50 of 5-HT to that of the ED50
T1 sequence (A0A5F9C9J3 35-494): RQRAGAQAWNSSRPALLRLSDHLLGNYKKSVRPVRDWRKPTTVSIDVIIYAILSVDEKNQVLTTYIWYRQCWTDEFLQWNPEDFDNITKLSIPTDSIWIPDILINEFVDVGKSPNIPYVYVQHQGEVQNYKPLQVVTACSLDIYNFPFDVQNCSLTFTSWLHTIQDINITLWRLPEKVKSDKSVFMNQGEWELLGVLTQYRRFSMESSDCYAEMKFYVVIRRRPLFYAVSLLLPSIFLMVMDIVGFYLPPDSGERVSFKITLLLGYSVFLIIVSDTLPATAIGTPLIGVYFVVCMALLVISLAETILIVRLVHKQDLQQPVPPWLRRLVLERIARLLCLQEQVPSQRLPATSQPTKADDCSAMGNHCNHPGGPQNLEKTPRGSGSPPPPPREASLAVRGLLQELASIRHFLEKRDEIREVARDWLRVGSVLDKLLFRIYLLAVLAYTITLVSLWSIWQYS
Protocol: The activity of the compounds against 5-HT can be assessed by determining their pA2 values in the isolated rabbit heart as described by J.R. Fozard et al Europ. J. Pharmacol. 59, 195-210 (1979). In the method described the molar concentration of antagonist which reduces the effects of twice the ED50 of 5-HT to that of the ED50 in the absence of antagonist is determined. The pA2 value is the negative logarithm of said molar concentrations.

5-HT M-receptor [3] = target: T1, 5-HT M-receptor; conditions: 5-HT M-receptor antagonism; values reported in the literature (J.R. Fozard et al., Eur. J. Pharmacol.); cited from earlier work

Row | Molecule | ED50 [1] | pA2 5-HT (5-HT M-receptor [2]) | minimal effective dose ([1]; dose required to just inhibit the response to 5-HT (2µg/kg i.v.), read-out: THRESHOLD DOSE) | pA2 5-HT (5-HT M-receptor [3])
1 | Cc1cc(C)cc(C(=O)OC2CCN(C)CC2)c1 [Compound A, N-Methyl-4-piperidinyl-3',5'-dimethylbenzoate] | 0.136 ± 0.022 mg/kg | 8.1 |  | 
2 | Cc1cc(C)cc(C(=O)OC2CCCN(C)C2)c1 (stereo not drawn) [Compound B, N-Methyl-3-piperidinyl-3',5'-dimethylbenzoate] | 0.51 ± 0.116 mg/kg | 7.3 |  | 
3 | CCN(CC)CCNC(=O)c1cc(Cl)c(N)cc1OC [metoclopramide] | 0.408 ± 0.0809 mg/kg |  | 0.233 ± 0.0663 mg/kg | 7.2
4 | COC(=O)[C@H]1[C@@H](OC(=O)c2ccccc2)C[C@@H]2CC[C@H]1N2 [nor(-)cocaine] |  |  |  | 7.7
5 | tropyl benzoate |  |  |  | 7.2
